≈ marks a conversion by molar mass, not a printed value.

The EC50 is the concentration giving half of the maximal effect. For orientation: solubility means the concentration that dissolves in the medium under given conditions. The term IC50 denotes the concentration at which inhibition is half-maximal.

The test system of series [1] is A549 human lung carcinoma cells. The series can be described thus: Cell-based EC50 determination, A549 cells (CellTiter-Glo cell viability). Particulars: A549, 24 h, read-out: A549 EC50 24h. As to the method:
A549 human lung carcinoma cells were cultured in RPMI 1640 medium (Sigma) supplemented with 10% fetal bovine serum (Sigma) and Antibiotic-Antimycotic (Sigma) in tissue culture flasks at 37°C in a humidified 5% CO2 atmosphere. Cells were routinely assayed for mycoplasma contamination.
Two thousand cells were plated in 384-well tissue culture plates, and treated after 24 hours with a 10-point dilution series of the compounds (1.5 nM-30 uM), using the vehicle, DMSO as control. Cells were incubated for 24 hours after which the relative cell density was determined by CellTiter-Glo Luminescent Cell Viability Assay (Promega). This method determines the number of metabolically active cells in the culture based on quantitation of the ATP present. The luminescent signal was measured with an Analyst GT multimode reader (Molecular Devices). […]
Background: In ATP-based viability assays light output follows the ATP content of the culture.

Series [2] has as its system HKE3 human colon carcinoma cell line. The series can be described thus: In vitro growth inhibition of colon carcinoma cells, HKE3 (CellTiter-Glo). Particulars: 72 hours incubation. Type of series: cell-based.
The next series addresses human Ack1 kinase (Homo sapiens, UniProt Q07912). The series can be described thus: In vitro Ack1 assay (TranScreener ADP2 FP, generation of ADP). Particulars: 12.5 uM compound; 3.5 µM ATP; read-out: Ack1 inh% @12.5 uM. Type of series: biochemical. As for the experimental part:
The activity of the compounds described in the present invention can be determined by the following kinase assay, which measures the generation of ADP by human Ack1 kinase by fluorescent polarization using a commercially available TranScreener ADP2 FP Assay Kit (BellBrook Labs).
Ack1 kinase assays were performed in low protein binding 384-well plates (Corning). Test compounds were diluted in 100% DMSO to 5 mM stock concentration and then further dilutions were made in H2O or 100% DMSO to desirable concentrations.
Each reaction consisted of 5 nM enzyme: Ack1 kinase, Poly Glu-Tyr (4:1) (Sigma), 3.5 µM ATP and kinase buffer: 20 mM HEPES pH7.5, 1 mM DTT, 2 mM MgCl2, 0.4 mM MnCl2, 0.01 V/V% Tween20 (all reagents from Sigma-Aldrich)
For each reaction, 4 or 6 µl containing Poly Glu-Tyr (4:1), ATP and kinase buffer were combined with 2 µl diluted compound in H2O or 0.02 µl compound in 100% DMSO. The kinase reaction was started by the addition of 2 µl diluted enzyme. The reaction was allowed to run for 1 hour at room temperature. The reaction was stopped by addition of 8 µl ADP detection mixture (1 x) (1 x Detection buffer + 4.78 µg/ml ADP2 Ab + 4 nM ADP Alexa633 Tracer). After an additional hour, fluorescent polarization (Ex: 630-35 nm, Em: 680-30 nm, Dich: 650 nm) was measured using an Analyst GT (Molecular Devices).

Series [3] concerns HCT-116 human colon carcinoma cell line. The series can be described thus: In vitro growth inhibition of colon carcinoma cells, HCT-116 (CellTiter-Glo). Type of series: cell-based. Particulars: 72 hours incubation, read-out: HCT116 EC50.
Another series is described as follows: physchem. Type of series: physicochemical. Particulars: kinetic from dmso stock. As to the method: Samples were diluted in DMSO (control), phosphate buffer pH = 7.4 and pH = 2.0, from 5mM stock solutions (solved in DMSO), with a 120 µM final concentration. The samples were incubated for 24 hours at room temperature followed by 30 minutes centrifugation at 3700 rpm. 40 µl of the supernatants were injected into HPLC (Waters 2795 Alliance HPLC equipped with Waters 996 PDA Detector (HPLC column: Waters XBridge, RP C18, 3.5 µm, 4.6 mm x 50 mm; gradient MeCN/H2O, containing 0.1% HCOOH: 5% MeCN (0.5 min), 5% to 95% MeCN (5 min), 95% MeCN (0.5 min); flow rate: 2.0 ml/min)) and the AUC values (measured on sample specific wavelength) of the buffered samples were divided by the AUC values (same wavelength as buffered samples') of the DMSO control samples. Table 3: Solubility in water for several compounds according to general formula (I)

The next series concerns the target T1, human Clk1 kinase (Homo sapiens, UniProt P49759).
T1 construct: Each reaction consisted of 4 nM enzyme: Clk1 kinase domain
The series can be described thus: In vitro Clk1 assay (IMAP fluorescence polarization). It counts as biochemical. Particulars: 0.45 µM ATP. As to the method:
The activity of the compounds described in the present invention can be determined by the following kinase assay, which measures the phosphorylation of a fluorescently-labeled peptide by human Clk1 kinase by fluorescent polarization using a commercially available IMAP Screening Express Assay Kit (Molecular Devices).
Clk1 kinase assays were performed in low protein binding 384-well plates (Corning). Test compounds were diluted in 100% DMSO to 5 mM stock concentration and then further dilutions were made in H2O or 100% DMSO to desirable concentrations.
Each reaction consisted of 4 nM enzyme: Clk1 kinase domain, 400 nM TAMRA-AFRREWSPGKEAKK-NH2 (Genecust), 0.45 µM ATP (Sigma) and kinase buffer: 20 mM TRIS pH 8, 1 mM DTT, 0.4 mM MgCl2, 0.4 mM MnCl2, 0.01 V/V% Tween20 (all reagents from Sigma-Aldrich)
For each reaction, 4 or 6 µl containing TAMRA-peptide, ATP and kinase buffer were combined with 2 µl diluted compound in H2O or 0.02 µl compound in 100% DMSO. The kinase reaction was started by the addition of 2 µl diluted enzyme. The reaction was allowed to run for 1 hour at room temperature. The reaction was stopped by adding 15 µl IMAP beads (1:600 beads in progressive (80 % buffer A, 20% buffer B) 1x buffer). After an additional hour, fluorescent polarization (Ex: 550-10 nm, Em: 590-10 nm, Dich: 561 nm) was measured using an Analyst GT (Molecular Devices).
On the technique in general: In fluorescence polarisation assays a small probe gives low polarisation when free and higher when bound to something large.

In series [4] the test system is HepG2 hepatoblastomaderived cell line. The series can be described thus: In vitro growth inhibition, HepG2 (CellTiter-Glo). It counts as cell-based. Particulars: Homo sapiens, 72 hours incubation.
For series [5], the system named is H1 N1 influenza virus strain A/WSN/33. The series can be described thus: microbe, parasite or virus in culture. Type of series: cell-based. Particulars: 36 h, read-out: Influenza replication IC50.
The next series concerns the target human Akt1 kinase (Homo sapiens, UniProt P31749). The series can be described thus: In vitro Akt1 assay (IMAP fluorescence polarization, phosphorylation of TAMRA-peptide). Particulars: 40 µM ATP; for inhibition at 12.5 µM: 12.5 uM compound, read-out: Akt1 inh% @12.5 uM. It counts as biochemical. As for the experimental part:
The inhibition of Akt1 by the compounds described in the present invention were determined measuring the phosphorylation of a fluorescently-labeled peptide (TAMRA-peptide) by human Akt1 kinase by fluorescent polarization using a commercially available IMAP Screening Express Assay Kit (Molecular Devices).
Akt1 kinase assays were performed in low protein binding 384-well plates (Corning). Test compounds were diluted in 100% DMSO to 5 mM stock concentration and then further dilutions were made in H2O or 100% DMSO to desirable concentrations.
Each reaction consisted of 5 nM enzyme: Akt1 kinase, 400 nM TAMRA-peptide (5-TAMRA-GRTGRRNSI-COOH; Genecust), 40 µM ATP and kinase buffer: 20 mM MES pH6, 1 mM DTT, 10 mM MgCl2, 2 mM MnCl2, 0.01 V/V% TritonX (all reagents from Sigma-Aldrich).
For each reaction, 4 or 6 µl containing TAMRA-peptide, ATP and kinase buffer were combined with 2 µl diluted compound in H2O or 0.02 µl compound in 100% DMSO. The kinase reaction was started by the addition of 2 µl diluted enzyme. The reaction was allowed to run for 1 hour at room temperature. The reaction was stopped by adding 15 µl IMAP beads (1:400 beads in progressive (75% buffer A, 25% buffer B) 1x buffer). After an additional hour, fluorescent polarization (Ex: 550-10 nm, Em: 590-10 nm, Dich: 561 nm) was measured using an Analyst GT (Molecular Devices).

Sequence of human Ack1 kinase (Q07912 whole entry): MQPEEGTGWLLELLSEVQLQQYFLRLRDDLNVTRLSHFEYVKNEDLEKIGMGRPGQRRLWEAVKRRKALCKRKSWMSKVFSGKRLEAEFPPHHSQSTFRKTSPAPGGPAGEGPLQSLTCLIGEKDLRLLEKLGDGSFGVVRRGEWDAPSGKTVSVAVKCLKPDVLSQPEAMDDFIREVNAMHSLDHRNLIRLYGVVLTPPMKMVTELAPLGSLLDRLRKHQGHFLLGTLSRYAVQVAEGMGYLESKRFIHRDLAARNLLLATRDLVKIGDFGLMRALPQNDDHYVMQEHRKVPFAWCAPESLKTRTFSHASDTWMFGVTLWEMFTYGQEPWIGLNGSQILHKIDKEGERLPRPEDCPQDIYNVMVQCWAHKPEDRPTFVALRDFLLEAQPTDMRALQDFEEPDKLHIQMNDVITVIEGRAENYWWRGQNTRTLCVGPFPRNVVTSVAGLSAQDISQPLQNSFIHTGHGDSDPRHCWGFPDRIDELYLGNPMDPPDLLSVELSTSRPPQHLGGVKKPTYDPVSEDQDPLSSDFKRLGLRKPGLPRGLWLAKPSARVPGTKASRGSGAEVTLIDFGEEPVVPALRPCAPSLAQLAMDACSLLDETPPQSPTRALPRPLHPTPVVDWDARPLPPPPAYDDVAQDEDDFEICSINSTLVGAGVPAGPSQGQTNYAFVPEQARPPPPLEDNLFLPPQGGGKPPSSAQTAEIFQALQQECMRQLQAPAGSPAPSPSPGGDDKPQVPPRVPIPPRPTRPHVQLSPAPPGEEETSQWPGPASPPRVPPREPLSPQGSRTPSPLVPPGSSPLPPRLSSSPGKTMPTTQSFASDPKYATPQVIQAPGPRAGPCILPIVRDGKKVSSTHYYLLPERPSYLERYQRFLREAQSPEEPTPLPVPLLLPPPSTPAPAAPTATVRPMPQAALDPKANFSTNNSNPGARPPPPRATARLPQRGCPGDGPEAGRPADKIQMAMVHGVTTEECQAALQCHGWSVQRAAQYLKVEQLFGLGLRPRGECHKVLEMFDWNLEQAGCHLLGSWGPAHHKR
T1 sequence (P49759 161-477 limits assumed): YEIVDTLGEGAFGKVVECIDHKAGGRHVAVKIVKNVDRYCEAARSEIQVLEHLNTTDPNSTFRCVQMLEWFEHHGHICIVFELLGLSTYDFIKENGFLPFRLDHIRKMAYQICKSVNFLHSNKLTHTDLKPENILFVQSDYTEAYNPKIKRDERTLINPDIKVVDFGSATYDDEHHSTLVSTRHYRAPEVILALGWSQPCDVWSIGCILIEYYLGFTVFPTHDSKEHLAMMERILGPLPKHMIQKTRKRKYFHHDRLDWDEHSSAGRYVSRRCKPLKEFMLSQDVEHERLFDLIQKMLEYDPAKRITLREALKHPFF
Sequence of human Akt1 kinase (P31749 whole entry): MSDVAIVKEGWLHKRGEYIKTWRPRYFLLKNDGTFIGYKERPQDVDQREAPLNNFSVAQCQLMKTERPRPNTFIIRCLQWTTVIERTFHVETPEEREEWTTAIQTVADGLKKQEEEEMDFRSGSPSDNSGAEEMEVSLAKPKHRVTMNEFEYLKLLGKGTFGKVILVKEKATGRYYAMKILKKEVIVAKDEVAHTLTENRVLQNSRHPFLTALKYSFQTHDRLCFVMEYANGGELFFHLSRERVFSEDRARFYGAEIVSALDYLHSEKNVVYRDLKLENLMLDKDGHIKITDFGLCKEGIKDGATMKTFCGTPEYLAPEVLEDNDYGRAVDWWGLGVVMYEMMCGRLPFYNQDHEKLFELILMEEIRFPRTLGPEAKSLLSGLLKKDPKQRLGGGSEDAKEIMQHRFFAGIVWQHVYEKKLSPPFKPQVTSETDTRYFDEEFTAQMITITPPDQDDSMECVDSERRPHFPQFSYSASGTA

For the molecule `C[C@@H](NC(=O)c1ccc2c(c1)/C(=C(/Nc1ccc(CN3CCCCC3)cc1)c1ccccc1)C(=O)N2)c1ccc(F)cc1` [Compound 23, (3Z)-N-[(1R)-1-(4-fluorophenyl)ethyl]-2-oxo-3-(phenyl{[4-(piperidin-1-ylmethyl)phenyl]amino}methylene)indoline-5-carboxamide], the 50% effective concentration (EC50) in [1] was found to be 15300 nM; in series [2], 40 nM; in series [3], 40 nM; in series [4], 920 nM. The inhibition at 12.5 µM at human Ack1 kinase was 91.1%; at human Akt1 kinase, 92.1%. The solubility at 24 h in “physchem” (pH 2, aqueous buffer) was 110 to 120 µM (≈ 63.2 to 69 µg/mL); in “physchem” (pH 7.4, aqueous buffer), < 10 µM. In addition, the IC50 was 20 nM at human Clk1 kinase, < 10 nM in series [5] and 180 nM on human Akt1 kinase.

Turning to `COc1cccc([C@@H](C)NC(=O)c2ccc3c(c2)/C(=C(/Nc2cccc(CN4CCCCC4)c2)c2ccccc2)C(=O)N3)c1` [Compound 24, (3Z)-N-[(1R)-1-(3-methoxyphenyl)ethyl]-2-oxo-3-(phenyl{[3-(piperidin-1-ylmethyl)phenyl]amino}methylene)indoline-5-carboxamide], the EC50 in series [1] turned out to be 11800 nM; in series [2] it was 290 nM; in series [3], 380 nM; in series [4], 6090 nM. Besides, the inhibition at 12.5 µM at human Ack1 kinase was 13.7%; at human Akt1 kinase, 76.8%. For the same molecule, the solubility at 24 h in “physchem” (pH 2, aqueous buffer) was 110 to 120 µM (≈ 64.5 to 70.4 µg/mL); in “physchem” (pH 7.4, aqueous buffer), < 10 µM. The half-maximal inhibitory concentration (IC50) came to 80 nM against human Clk1 kinase, 420 nM in [5] and 880 nM against human Akt1 kinase.

In the case of `Cc1ccc([C@@H](C)NC(=O)c2ccc3c(c2)/C(=C(/Nc2cccc(CN4CCCCC4)c2)c2ccccc2)C(=O)N3)cc1` [Compound 27, (3Z)-N-[(1R)-1-(4-methylphenyl)ethyl]-2-oxo-3-(phenyl{[3-(piperidin-1-ylmethyl)phenyl]amino}methylene)indoline-5-carboxamide], the EC50 worked out at 25400 nM in series [1], 1320 nM in series [2], 1410 nM in series [3] and 5240 nM in series [4]. In addition, the results for the inhibition at 12.5 µM at human Ack1 kinase and on human Akt1 kinase were 9.9% and 81.3%, respectively. For the same molecule, the solubility at 24 h in the series “physchem” (pH 2, aqueous buffer) was 110 to 120 µM (≈ 62.8 to 68.5 µg/mL); in the series “physchem” (pH 7.4, aqueous buffer) it was < 10 µM. The half-maximal inhibitory concentration (IC50) is 200 nM against human Clk1 kinase, 2460 nM in series [5] and 2960 nM against human Akt1 kinase.

With `C[C@H](NC(=O)c1ccc2c(c1)/C(=C(/Nc1ccc(CN3CCCCC3)cc1)c1ccccc1)C(=O)N2)c1ccccc1` [Compound 30, (3Z)-2-oxo-N-[(1S)-1-phenylethyl]-3-(phenyl{[4-(piperidin-1-ylmethyl)phenyl]amino}methylene)indoline-5-carboxamide], the concentration for a half-maximal effect (EC50) came out at 5980 nM in series [1], 10 nM in series [2], 10 nM in [3] and 580 nM in series [4]. Besides, the inhibition at 12.5 µM on human Ack1 kinase turned out to be 80.5%; on human Akt1 kinase, 93%. The solubility at 24 h in “physchem” (pH 2, aqueous buffer) is 110 to 120 µM (≈ 61.2 to 66.8 µg/mL); in the series “physchem” (pH 7.4, aqueous buffer), < 10 µM. Also, the results for the IC50 (on human Clk1 kinase; in [5]; against human Akt1 kinase) were 10 nM, < 10 nM and 1300 nM, respectively.
